Test results reported in patent publication US12403132B2, “Methods of treating bone marrow failure syndromes and compositions for use in the same” (The Board of Trustees of the Leland Stanford Junior …, priority 2020, dated 2025).

Tested on: CD235+ erythroblasts
Experiment: CD235+ erythroid expansion of differentiating human cord blood CD34+ progenitors (shRPS19/shRPL11 DBA models), flow cytometry
Format: cell-based
Conditions: TGFβ-treated control and RPS19-insufficiency, 5 μM

## Cc1cccc(-c2[nH]c(C(C)(C)C)nc2-c2ccc3c(c2)OCO3)n1 [SB505124]
  erythroid and myeloid expansion restored, % of cultures not treated with TGFβ: at least 95%
